# Results taken from patent US20090022821A1, “COMPOSITIONS FROM WAX MYRTLE FOR THE TREATMENT OF CANCER, CARDIOVASCULAR AND INFLAMMATORY DISEASES” (priority 2007, published 2009).
# pIC50, pKi: −log10 of the molar value.
# Columns and labels:
# [1] = system: Aortic Smooth Muscle Cells (A7r5); experiment: Methylene Blue Cell Proliferation assay, Aortic Smooth Muscle Cells (A7r5); assay type: cell-based, rat; details: 3 days, methylene blue staining, serum free medium, FIG. 3
# Method: Inhibition of Proliferation of Aortic Smooth Muscle Cells (A7r5) by wax myrtle extract: The Methylene Blue Cell Proliferation assay assess growth inhibition in a cell-based proliferation assay using protein staining as an estimate of relative cell number. For assessment of cell-based potency, A7r5 (20,000 cells/well) were plated in 96-well plates in the growth media. After 24 h, cells were exposed to compounds at different concentrations. A final concentration of 0.2% DMSO was added to the growth media to keep the compounds in solution. After 3 days, relative cell numbers were estimated using methylene blue staining. The absorbance at 620 nm was read in a microplate reader. Data were analyzed using curve-fitting macros written for Microsoft Excel. Concentrations with IC50 were interpolated using the equation: y=Vmax×[1−(x^n/(K^n+x^n))], where “K” is equal to IC50.
# [2] = system: Aortic Smooth Muscle Cells (A7r5); experiment: Induction of apoptosis by Cell Death ELISA (cytoplasmic histone-DNA fragments) in A7r5 cells; assay type: cell-based, rat; details: 24 h treatment, serum free medium, FIG. 4
# Method: Induction of Apoptosis in Aortic Smooth Muscle Cells (A7r5) by wax myrtle extract and myriceric acid,: Quantitation of apoptotic cell death was determined by Cell Death ELISA (Roche Biochemicals) that measures cytoplasmic histone-DNAfragments produced during apoptosis. Briefly, A7r5 cells (5×10^3/well)were grown in 96-well plates and treated, in triplicates, for 24 h with the indicated doses of wax myrtle extract and myriceric acid A. After treatment, the 96-well plates were centrifuged (200×g) for 10 min. The supernatant was discarded, lysis buffer was added, and samples were incubated at room temperature. Lysates were transferred to reaction wells and incubated with anti-histone biotin and anti-DNA peroxidase antibodies and incubated at room temperature for 2 h. After three washes, the peroxidase substrate was added to each well, and the plates were read at 405 nm after 15-min incubation. The enrichment of histone-DNAfragments treated cells is expressed as absorbance at 405 nm.
# [3] = system: ET-1-induced [Ca++] flux in rat aortic smooth muscle cells A7r5; details: reference (23), cited from earlier work
# [4] = target: T1, ET receptor, rat aortic smooth muscle cells (Rattus norvegicus, UniProt P26684); details: reference (23), cited from earlier work
# T1 construct: endogenous in cells; host or cells: rat aortic smooth muscle cells
# T1 sequence (P26684 21-426): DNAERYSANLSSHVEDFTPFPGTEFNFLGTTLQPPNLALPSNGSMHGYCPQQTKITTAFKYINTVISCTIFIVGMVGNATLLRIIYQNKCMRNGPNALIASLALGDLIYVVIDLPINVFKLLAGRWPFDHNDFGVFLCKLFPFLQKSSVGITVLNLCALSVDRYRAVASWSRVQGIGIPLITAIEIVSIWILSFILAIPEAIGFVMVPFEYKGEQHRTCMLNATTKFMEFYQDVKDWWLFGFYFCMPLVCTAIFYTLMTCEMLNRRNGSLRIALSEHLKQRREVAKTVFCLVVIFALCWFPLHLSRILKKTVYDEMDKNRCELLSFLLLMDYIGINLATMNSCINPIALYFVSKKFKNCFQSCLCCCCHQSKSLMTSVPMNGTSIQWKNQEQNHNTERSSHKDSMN
substance,measurement,setting,value
Myriceric acid A,"estimated IC50, growth inhibition of A7r5",[1],0.87±0.30 […]μg/ml
same,"apoptosis, enrichment of histone-DNA fragments (absorbance at 405 nm)",[2],dose-dependent apoptosis
same,pIC50,"[3]; repeated as I50 for block of ET signaling pathway, read-out: IC50, inhibition of ET-1-induced [Ca++] flux",7.96
same,"IC50, inhibition of ET-1-induced [Ca++] flux",[3],0.0075 µg/mL
same,"Ki, binding of radiolabeled ET to rat aortic smooth muscle cells",[4],0.04 µg/mL
same,pKi,"[4]; read-out: Ki, binding of radiolabeled ET to rat aortic smooth muscle cells",7.18
